# Values of other authors as cited in patent US20210251906A1, “[…]-RELEASE FORMULATIONS” (Mylan Inc., priority 2018, published 2021).
# Legend:
# [1] = in vivo
# [2] = in water and in basic and acidic aqueous solutions
structure (smiles),measurement,setting,value
"CC(C)C[C@H](CN)CC(=O)O [Pregabalin, (S)-3-(aminomethyl)-5-methylhexanoic acid]",Elimination half-life,[1],about 6.3 hours
same,Solubility,[2],freely soluble
